Data from patent publication US20210386757A1, “Methods of Treating Menopausal Symptoms Using Low Dose Progesterone” (priority 2018, published 2021).

Legend:
[1] = test system: symptoms of the menopause transition state; test: Trial of progesterone for treating symptoms of the menopause transition state (Example 1); assay type: in vivo, women; conditions: greater than 100 patients, low dose e.g. 25 mg twice a day
Method: It is apparent based on initial observations that supplementing with a low dose progesterone alleviates symptoms in women transitioning into menopause. The question then becomes, if a person is experiencing symptoms of estrogen dominance does failing to treat estrogen dominance result in a greater risk of breast cancer, uterine cancer, and cardiovascular disease. Supplementing with progesterone, e.g., at 25 mg twice a day can improve many symptoms associated with menopause transition. […] Micronized progesterone (25 mg) Dosing regimens of interest: One tablet bid (twice a day); Two tablets qhs (each night at bedtime); One tablet qam (every morning), two tablets qhs (each night at bedtime).

[2] = test system: symptoms associated with menopause transition; test: Observational study of low dose oral micronized progesterone in menopause transition, Menopause Rating Scale (MRS); assay type: in vivo, women
Source text: Women between the ages of 40 to 55 years of age who were experiencing symptoms consistent with menopause transition were offered a trial of a low dose progesterone to alleviate their symptoms. The primary complaint for inclusion in the study was alterations in mood defined as depressive mood, irritability, or anxiety on the Menopause Rating Scale (MRS). A score of 2-4 on these mood changes was required to be included in the study. One additional symptom (sleep problems, hot flushes, physical and mental exhaustion) on the MRS was required, with a minimum score of 1, to be included. Patients with a history of breast cancer, actively trying to conceive, or in menopause were excluded from the study. Menopause was defined as no menses for greater than one year or surgical removal of the ovaries. Patients were consented for a trial of oral micronized progesterone at 25 mg twice a day. Response to treatment was evaluated in the office after 3 months of treatment. Data was collected over a one-year time period, September 2018-September 2019. The menopause transition time, referred to as perimenopause, includes both the early and late perimenopausal group. Patient selection was classified according to STRAW (Stages of Reproductive Aging Workshop) classification. Late perimenopause was defined as menstruation in the previous/last 2-12 months, but not in the previous/last 2 months. Early perimenopause was defined as increasing irregularity of menses without skipping periods (7 days difference) from the beginning of a given cycle to the next. The Menopause Rating Scale was utilized to quantify qualitative symptoms associated with the menopause transition. Given treatment differences in the symptoms that impact person transitioning through menopause, attention was focused on 6 components of the MRS; hot flushes, sleep problems, depressive mood, irritability, anxiety, and physical/mental exhaustion. The scoring scheme increases point by point with increasing severity of subjectively perceived symptoms in each of those 6 items (severity 0 [no complaints] . . . 4 scoring points [very severe symptoms]). The respondent rated their personal symptoms on a 0 to 4 scale for each item. The MRS was chosen as a result of being a reliable measure of quality of life in aging women of various regions over time.

`CC(=O)[C@H]1CC[C@H]2[C@@H]3CCC4=CC(=O)CC[C@]4(C)[C@H]3CC[C@]12C` [micronized progesterone, progesterone] was tested, and the “subsequent diagnosis of breast cancer, uterine cancer, or a cardiovascular event” value [1] was “not one patient was subsequently diagnosed with breast cancer, uterine cancer, or a cardiovascular event”, the “response of patients who altered the dosing regimen” value ([2]; once a day or two tablets (50 mg) at night, 14 patients excluded from the study) was “noted benefits and chose to continue the medication” and the “patients with at least a one-point improvement in MRS symptom score, physical and mental exhaustion” value ([2]; oral 25 mg twice a day, 3 months, 12 of 19 patients who noted physical and mental exhaustion) was 63%. For the same molecule, the “patients with at least a one-point improvement in MRS symptom score, sleep problems” value ([2]; oral 25 mg twice a day, 3 months, 27 of 32 patients who noted sleep problems) was 84%, the “patients with at least a one-point improvement in MRS symptom score, hot flushes” value ([2]; oral 25 mg twice a day, 3 months, 44 of 48 patients who noted hot flushes) was 92% and the “patients who did not report side effects to the medication” value ([2]; oral 25 mg twice a day, 3 months, of 55 patients evaluated) was 54 patients. For the same molecule, the “patients reporting MRS symptom score of 0” value ([2]; oral 25 mg twice a day, at 3 months, 44 of 55 patients) was 80%, the “discontinuation because of a diagnosis of breast cancer, thromboembolic event, or abnormal uterine bleeding” value ([2]; oral 25 mg twice a day, during the study period) was “No patient discontinued the medication” and the “patients with at least a two-point improvement in MRS symptom score related to mood changes” value ([2]; oral 25 mg twice a day, evaluated at 3 months, 52 of 55 patients) was 94.5%. For the same molecule, the “discontinuation because of an adverse effect” value ([2]; oral 25 mg twice a day, prior to the 3 month follow up) was “One patient discontinued the medication prior to the 3 month follow up secondary to worsening headaches”.
